Experimental data: patent US9067934B2, “Bicyclic pyridinones” (Pfizer Inc., priority 2011, dated 2015)
Where a name gives a salt, the structure may show the parent alone.

Tested on: production of amyloid beta protein Aβ(1-42) (γ-secretase) in human WT-APP overexpressing CHO cells
Assay: Cell-Based γ-Secretase Assay with ELISA Readout
Conditions: human WT-APP overexpressing CHO cells, ~24 hours at 37° C., Aβ(1-42) ELISA; footnotes: a = geometric mean of >15 determinations, b = single determination, c = geometric mean of 7-15 determinations; read-out: Aβ 42B IC50 (Geometric Mean of 2-6 Determinations)
Method: Cell-Based γ-Secretase Assay with ELISA Readout
The ability of compounds to modulate production of amyloid beta protein Aβ(1-42) was determined using human WT-APP overexpressing CHO cells. Cells were plated at 22,000 cells/100 μL well in 96 well tissue culture treated, clear plates (Falcon) in DMEM/F12 based medium and incubated for 24 hours at 37° C. Compounds for testing were diluted in 100% DMSO to achieve an eleven points, half log, dose response for IC50 determinations. Compounds were added in fresh medium to achieve 1% final DMSO. Appropriate vehicle or inhibitor controls were added into control wells individually to obtain minimum or maximum inhibition values, respectively, for the assay signal window before the plates were incubated for ˜24 hours at 37° C. This procedure produces conditioned media in each well which is tested for Aβ(1-42) levels in the ELISA detection step described next. The remaining cell cultures in each well are also tested for cell toxicity as described below.
Coating of ELISA assay plates was initiated by addition of 50 μL/well of an in-house Aβ(1-42) specific antibody at (3 μg/mL) in 0.1 M NaHCO3 (pH 9.0) into black 384-well Maxisorp® plates (Nunc) and incubated overnight at 4° C. The capture antibody was then aspirated from the ELISA assay plates and plates were washed 4×100 μL with Wash Buffer (Dulbecco's PBS, 0.05% Tween 20). 90 μL/well of Blocking Buffer (Dulbecco's PBS, 1.0% BSA (Sigma A7030)) was then added to plates. Ambient temperature incubation was allowed to proceed for a minimum of two hours. Blocking buffer was then removed and 20 μL/well Assay Buffer (Dulbecco's PBS, 1.0% BSA (Sigma A7030), 0.05% Tween 20) was then added. At this point, 40 μL (in duplicate) of experimental conditioned media (described above) were transferred into wells of the blocked ELISA plates containing the capture antibody, followed by overnight incubation at 4° C. Cell toxicity was also measured in the corresponding remaining cells after removal of the conditioned media for the Aβ(1-42) assay by a colorimetric cell proliferation assay (CellTiter 96® AQueous One Solution Cell Proliferation Assay, Promega) according to the manufacturer's instructions.
After overnight incubation of the ELISA assay plates at 4° C., unbound Aβ peptides were removed via (4×100 μL) washes with Wash Buffer. Europium (Eu) labeled (custom labeled, Perkin Elmer) Aβ(1-16) 6e10 Monoclonal Antibody (Covance #SIG-39320) was added, (50 μL/well Eu-6e10 @ 1:10,000, 20 uM EDTA) in Assay Buffer. Incubation at ambient temperature for a minimum of 2 hours was followed by (4×100 μL) washes with Wash Buffer, before 30 μL/well of Delfia Enhancement Solution (Perkin Elmer) was added. Following an one hour ambient temperature incubation, the plates were read on an EnVision plate reader (Perkin Elmer) using standard DELFIA TRF settings. Data analysis including inhibitory IC50 determination was performed using nonlinear regression fit analysis (in-house software) and the appropriate plate mean values for the maximum and minimum inhibition controls.

Structure (SMILES): Cc1cn(-c2ccc3n(c2=O)[C@@H](C)CN(CCOc2ccc(F)cc2C(F)(F)F)C3=O)cn1 [Example 112, (4S)-2-{2-[4-fluoro-2-(trifluoromethyl)phenoxy]ethyl}-4-methyl-7-(4-methyl-1H-imidazol-1-yl)-3,4-dihydro-2H-pyrido[1,2-a]pyrazine-1,6-dione]
- IC50: 340 nM

Structure (SMILES): Cc1cn(-c2ccc3n(c2=O)CCN(CCOc2ccc(F)cc2C2CC(F)(F)C2)C3=O)cn1 [Example 76, 2-{2-[2-(3,3-difluorocyclobutyl)-4-fluorophenoxy]ethyl}-7-(4-methyl-1H-imidazol-1-yl)-3,4-dihydro-2H-pyrido[1,2-a]pyrazine-1,6-dione]
- IC50: 58.6 nM

Structure (SMILES): Cc1cn(-c2ccc3n(c2=O)CCN(C(C)C(C)Oc2ccccc2S(F)(F)(F)(F)F)C3=O)cn1 (single isomer, unassigned) [Example 125, 7-(4-methyl-1H-imidazol-1-yl)-2-{3-[2-(pentafluoro-λ^6-sulfanyl)phenoxy]butan-2-yl}-3,4-dihydro-2H-pyrido[1,2-a]pyrazine-1,6-dione]
- IC50: 653 nM

Structure (SMILES): Cc1cn(-c2ccc3n(c2=O)CCN(CCOc2ccc(F)cc2C2(C(F)(F)F)CCO2)C3=O)cn1 (centres unmarked) [Example 122, 2-(2-{4-fluoro-2-[2-(trifluoromethyl)oxetan-2-yl]phenoxy}ethyl)-7-(4-methyl-1H-imidazol-1-yl)-3,4-dihydro-2H-pyrido[1,2-a]pyrazine-1,6-dione, trifluoroacetate salt]
- IC50: 85.6 nM

Structure (SMILES): Cc1cn(-c2ccc3n(c2=O)CCN(CCOc2ccccc2-c2cc(C(F)(F)F)[nH]n2)C3=O)cn1 [Example 49, 7-(4-methyl-1H-imidazol-1-yl)-2-(2-{2-[5-(trifluoromethyl)-1H-pyrazol-3-yl]phenoxy}ethyl)-3,4-dihydro-2H-pyrido[1,2-a]pyrazine-1,6-dione]
- IC50: 178 nM

Structure (SMILES): Cc1cn(-c2ccc3n(c2=O)CCN(CCOc2ccccc2-c2ccc(C#N)c(C(F)(F)F)c2)C3=O)cn1 [Example 65, 2′-{2-[7-(4-methyl-1H-imidazol-1-yl)-1,6-dioxo-1,3,4,6-tetrahydro-2H-pyrido[1,2-a]pyrazin-2-yl]ethoxy}-3-(trifluoromethyl)biphenyl-4-carbonitrile]
- IC50: 46.1 nM

Structure (SMILES): Cc1cn(-c2ccc3n(c2=O)CCN(CCOc2cccc4c2c2ccccc2n4C)C3=O)cn1 [Example 71, 2-{2-[(9-methyl-9H-carbazol-4-yl)oxy]ethyl}-7-(4-methyl-1H-imidazol-1-yl)-3,4-dihydro-2H-pyrido[1,2-a]pyrazine-1,6-dione, trifluoroacetate salt]
- IC50: 4.22 nM

Structure (SMILES): Cc1cn(-c2ccc3n(c2=O)CCN(CCOc2ccccc2C(C)(C)C)C3=O)cn1 [Example 13, 2-[2-(2-tert-butylphenoxy)ethyl]-7-(4-methyl-1H-imidazol-1-yl)-3,4-dihydro-2H-pyrido[1,2-a]pyrazine-1,6-dione]
- IC50: 108 nM

Structure (SMILES): Cc1cn(-c2ccc3n(c2=O)CCN([C@@H](C)COc2ccccc2S(F)(F)(F)(F)F)C3=O)cn1 [Example 120, 7-(4-methyl-1H-imidazol-1-yl)-2-{(2S)-1-[2-(pentafluoro-λ^6-sulfanyl)phenoxy]propan-2-yl}-3,4-dihydro-2H-pyrido[1,2-a]pyrazine-1,6-dione]
- IC50: 17.8 nM

Structure (SMILES): Cc1cn(-c2ccc3n(c2=O)CCN(CCOc2ccccc2-c2coc(C)n2)C3=O)cn1 [Example 41, 7-(4-methyl-1H-imidazol-1-yl)-2-{2-[2-(2-methyl-1,3-oxazol-4-yl)phenoxy]ethyl}-3,4-dihydro-2H-pyrido[1,2-a]pyrazine-1,6-dione, trifluoroacetate salt]
- IC50: 156 nM

Structure (SMILES): CCC(COc1ccc(F)cc1C(F)(F)F)N1CCn2c(ccc(-n3cnc(C)c3)c2=O)C1=O (centres unmarked) [Example 103, 2-{1-[4-fluoro-2-(trifluoromethyl)phenoxy]butan-2-yl}-7-(4-methyl-1H-imidazol-1-yl)-3,4-dihydro-2H-pyrido[1,2-a]pyrazine-1,6-dione]
- IC50: 596 nM

Structure (SMILES): Cc1cn(-c2ccc3n(c2=O)CCN([C@@H](C)COc2ccc(F)cc2C(F)(F)F)C3=O)cn1 [Example 57, 2-{(1S)-2-[4-fluoro-2-(trifluoromethyl)phenoxy]-1-methylethyl}-7-(4-methyl-1H-imidazol-1-yl)-3,4-dihydro-2H-pyrido[1,2-a]pyrazine-1,6-dione]
- IC50: 113 nM

Structure (SMILES): Cc1cn(-c2ccc3n(c2=O)CCN(CCOc2ccc(Cl)cc2-n2ccc(C(F)(F)F)n2)C3=O)cn1 [Example 50, 2-(2-{4-chloro-2-[3-(trifluoromethyl)-1H-pyrazol-1-yl]phenoxy}ethyl)-7-(4-methyl-1H-imidazol-1-yl)-3,4-dihydro-2H-pyrido[1,2-a]pyrazine-1,6-dione, trifluoroacetate salt]
- IC50: 29.3 nM

Structure (SMILES): O=C1c2ccc(-n3cnc(Cl)c3)c(=O)n2CCN1CCOc1ccccc1C(F)(F)F [Example 114, 7-(4-chloro-1H-imidazol-1-yl)-2-{2-[2-(trifluoromethyl)phenoxy]ethyl}-3,4-dihydro-2H-pyrido[1,2-a]pyrazine-1,6-dione]
- IC50: 1320 nM

Structure (SMILES): Cc1cn(-c2ccc3n(c2=O)CCN(CCOc2ccccc2C24CC(C2)C4)C3=O)cn1 [Example 106, 2-{2-[2-(bicyclo[1.1.1]pent-1-yl)phenoxy]ethyl}-7-(4-methyl-1H-imidazol-1-yl)-3,4-dihydro-2H-pyrido[1,2-a]pyrazine-1,6-dione]
- IC50: 27.4 nM

Structure (SMILES): Cc1ncc(-c2ccc3n(c2=O)CCN(CCOc2cccc4ccc(F)cc24)C3=O)o1 [Example 2, 2-{2-[(7-Fluoronaphthalen-1-yl)oxy]ethyl}-7-(2-methyl-1,3-oxazol-5-yl)-3,4-dihydro-2H-pyrido[1,2-a]pyrazine-1,6-dione]
- IC50: 434 nM

Structure (SMILES): Cc1cn(-c2ccc3n(c2=O)CCN(CCOc2cccc4c2CC(F)(F)C4)C3=O)cn1 [Example 108, 2-{2-[(2,2-difluoro-2,3-dihydro-1H-inden-4-yl)oxy]ethyl}-7-(4-methyl-1H-imidazol-1-yl)-3,4-dihydro-2H-pyrido[1,2-a]pyrazine-1,6-dione]
- IC50: 46.8 nM

Structure (SMILES): Cc1cn(-c2ccc3n(c2=O)CCN(CCOc2ccccc2-c2cc(C(F)(F)F)no2)C3=O)cn1 [Example 72, 7-(4-methyl-1H-imidazol-1-yl)-2-(2-{2-[3-(trifluoromethyl)isoxazol-5-yl]phenoxy}ethyl)-3,4-dihydro-2H-pyrido[1,2-a]pyrazine-1,6-dione]
- IC50: 14.8 nM

Structure (SMILES): Cc1cn(-c2ccc3n(c2=O)CCN(CCOc2cccc4c2OC(F)(F)O4)C3=O)cn1 [Example 109, 2-{2-[(2,2-difluoro-1,3-benzodioxol-4-yl)oxy]ethyl}-7-(4-methyl-1H-imidazol-1-yl)-3,4-dihydro-2H-pyrido[1,2-a]pyrazine-1,6-dione]
- IC50: 275 nM

Structure (SMILES): Cc1cn(-c2ccc3n(c2=O)CCN(CCOc2cc(C(F)(F)F)nc4c(Cl)ccc(F)c24)C3=O)cn1 [Example 66, 2-(2-{[8-chloro-5-fluoro-2-(trifluoromethyl)quinolin-4-yl]oxy}ethyl)-7-(4-methyl-1H-imidazol-1-yl)-3,4-dihydro-2H-pyrido[1,2-a]pyrazine-1,6-dione]
- IC50: 52.4 nM

Structure (SMILES): COc1ccc(OCCN2CCn3c(ccc(-n4cnc(C)c4)c3=O)C2=O)c2ccccc12 [Example 8, 2-{2-[(4-methoxy-1-naphthyl)oxy]ethyl}-7-(4-methyl-1H-imidazol-1-yl)-3,4-dihydro-2H-pyrido[1,2-a]pyrazine-1,6-dione]
- IC50: 93 nM

Structure (SMILES): Cc1cn(-c2ccc3n(c2=O)CCN(CCOc2ccccc2-c2ccc(F)cc2)C3=O)cn1 [Example 89, 2-{2-[(4′-fluorobiphenyl-2-yl)oxy]ethyl}-7-(4-methyl-1H-imidazol-1-yl)-3,4-dihydro-2H-pyrido[1,2-a]pyrazine-1,6-dione, formate salt]
- IC50: 101 nM

Structure (SMILES): Cc1cn(-c2ccc3n(c2=O)CCN(CCOc2ccc(Cl)cc2C24CC(C2)C4)C3=O)cn1 [Example 110, 2-{2-[2-(bicyclo[1.1.1]pent-1-yl)-4-chlorophenoxy]ethyl}-7-(4-methyl-1H-imidazol-1-yl)-3,4-dihydro-2H-pyrido[1,2-a]pyrazine-1,6-dione]
- IC50: 14.5 nM
